Key:
Mouse Leukemia L1210 = assay: Antitumor activity against mouse leukemia L1210 in vivo; parameters: species or system mouse (female CDF1); conditions: i.p. once a day for 5 consecutive days; for Opt. dose: L1210, daily amount giving the max (T/C); for max (T/C): L1210, mean survival time, at optimum dose; for LD50: L1210-bearing female CDF1 mice
Description: Test of Antitumor Activity Against Mouse Leukemia L1210 in vivo
1×10^5 mouse leukemia L1210 cells were inoculated into the abdominal cavities of 6-week-old female CDF1 mice. From the next day, a compound was administered to them intraperitoneally once a day for 5 consecutive days. Mice of a compound-non-treated group (control group) were administered with physiological saline solution in the same manner. The mean survival time of the compound-treated group and the control group were measured and T/C was calculated from the equation (1): [formula]
In Table 4, max (T/C) means the maximum value of T/C and optimum dose (Opt. dose) means a daily administration amount giving the max (T/C), namely, an optimum daily administration amount.

[1] = cis-Platin, prior art description; cited from earlier work
[2] = tested on: Mouse leukemia L1210 cells; assay: Growth inhibitory activity against cultured tumor cells, L1210; type: cell-based; conditions: Tumor cell L1210; RPMI 1640, 10% fetal calf serum
Description: (§1) Test of Growth Inhibitory Activity Against Various Kinds of Cultured Tumor Cells
(§2) Mouse leukemia L1210 cells were cultured in a RPMI 1640 medium containing 10% of fetal calf serum and mouse Lewis lung carcinoma (LL) cells were cultured in a RPMI 1640 medium containing 10% fetal calf serum and 100 μg/ml of Kanamycin.

[3] = tested on: mouse Lewis lung carcinoma (LL) cells; assay: Growth inhibitory activity against cultured tumor cells, LL; type: cell-based; conditions: Tumor cell LL; RPMI 1640, 10% fetal calf serum, 100 μg/ml Kanamycin
Description: as §1, §2

[4] = tested on: Mouse Lewis Lung Carcinoma; assay: Antitumor activity against mouse Lewis lung carcinoma in vivo; parameters: species or system mouse (male BDF1); conditions: i.p. once a day for 5 consecutive days; for max (T/C) / Opt. dose: Lewis lung carcinoma; for max (T/C): median survival time, at optimum dose; for Opt. dose: daily amount giving the max (T/C)
Description: Test of Antitumor Activity Against Mouse Lewis Lung Carcinoma
1×10^6 mouse Lewis lung carcinoma cells were inoculated into the abdominal cavities of 6-week-old male BDF1 mice. From the next day, a compound was administered to them intraperitoneally once a day for 5 consecutive days. Mice of compound-non-treated group (control group) were administered with physiological saline solution in the same manner. From the median survival time of the compoundtreated group and the control group, T/C was calculated according to the following equation (2): [formula]
In Table 5, max (T/C), and Opt. dose and LD50 mean the same ones in Table 4, respectively.

[5] = mouse, in vivo, ip
Description: A compound was singly administered to 6-week-old male CDF1 mice intraperitoneally.

[6] = tested on: cis-Platin resistant mouse leukemia L1210 cells; assay: Growth inhibitory activity against cis-Platin resistant tumor cells, L1210; type: cell-based; conditions: Tumor cell L1210; ratio of IC50 for cis-Platin resistant cells to IC50 for non-resistant cells
Excerpt: (§3) 1×10^5 mouse leukemia L1210 cells or 1×10^5 mouse leukemia P388 cells were inoculated into the abdominal cavities of CDF1 female mice. […] After 5 days, their tumor cells were inoculated to the abdominal cavities of other CDF1 female mice, and the same treatment was applied.

[7] = tested on: cis-Platin resistant mouse leukemia P388 cells; assay: Growth inhibitory activity against cis-Platin resistant tumor cells, P388; type: cell-based; conditions: Tumor cell P388; ratio of IC50 for cis-Platin resistant cells to IC50 for non-resistant cells
Excerpt: as §3

| Compound | Opt. dose (Mouse Leukemia L1210) | dissolving in water (in words) [1] | IC50 [2] | IC50 [3] | Solubility in water | max (T/C) (Mouse Leukemia L1210) | max (T/C) [4] | LD50 ([4]; Lewis lung carcinoma-bearing male BDF1 mice) | Opt. dose [4] | LD50 (Mouse Leukemia L1210) | Solubility in physiological saline solution (physiological saline) | Body weight ratio [5] | IC50 R/IC50 [6] | IC50 R/IC50 [7] |
| --- | --- | --- | --- | --- | --- | --- | --- | --- | --- | --- | --- | --- | --- | --- |
| N.N.[Cl][Pt][Cl] [cis-Platin, cis-dichlorodiammineplatinum, reference compound] | 4 mg/kg | dissolving in water slowly |  |  |  |  |  |  |  |  |  |  |  |  |
| cis-4-Oxacyclohexane-1,1-dicarboxylato-2,3-dimethyl-1,4-butanediamine Platinum [Compound No. 6] |  |  | 0.11 µg/mL | 1.06 µg/mL | > 20 mg/mL |  |  |  |  |  |  |  |  |  |
| cis-Cyclobutane-1,1-dicarboxylato-2,3-dimethyl-1,4-butanediamine Platinum [Compound No. 4] | 32.0 mg/kg |  | 1.01 µg/mL | 2.10 µg/mL |  | 328 | 144 | 48.0 mg/kg | 32.0 mg/kg |  |  |  |  |  |
| cis-Dichloro-2,3-dimethyl-1,4-butanediamine Platinum [Compound No. 1] | 2.0 mg/kg |  | 0.04 µg/mL | 0.43 µg/mL |  | 323 |  |  |  | 3.0 mg/kg | > 2 mg/ml | 0.79 |  |  |
| cis-Diethylmalonato-2,3-dimethyl-1,4-butanediamine Platinum [Compound No. 8] |  |  |  |  | > 15 mg/mL |  |  |  |  |  |  |  |  |  |
| cis-Dimethylmalonato-2,3-dimethyl-1,4-butanediamine Platinum [Compound No. 5] | 32.0 mg/kg |  | 0.40 µg/mL | 1.06 µg/mL | > 20 mg/mL | 245 |  |  |  |  |  | 0.89 | 1.4 | 6.2 |
| cis-Ethylmalonato-2,3-dimethyl-1,4-butanediamine Platinum [Compound No. 7] |  |  |  |  | > 20 mg/mL |  |  |  |  |  |  |  |  |  |
| cis-Malonato-2,3-dimethyl-1,4-butanediamine Platinum [Compound No. 3] | 16.0 mg/kg |  | 0.27 µg/mL | 0.95 µg/mL | > 30 mg/mL | 400 | 234 |  | 32.0 mg/kg |  |  | 1.00 | 1.3 | 4.6 |
| cis-Oxalato-2,3-dimethyl-1,4-butanediamine Platinum [Compound No. 2] | 4.0 mg/kg |  | 0.11 µg/mL | 0.65 µg/mL | > 3 mg/mL | 296 |  |  |  | 7.2 mg/kg |  | 0.77 |  |  |
